The record followed here is paper PMC8201173, “Inhibition of Carbonic Anhydrase IX Promotes Apoptosis through Intracellular pH Level Alterations in Cervical Cancer Cells” (International Journal of Molecular Sciences, 2021).

Type in all cases: cell-based
One assay has as its system HEK-293. Put plainly: WST-1 cytotoxicity assay, HEK-293. The settings on record: Homo sapiens. On the procedure:
(§1) We used cancer and normal cell lines purchased from ATCC (American Type Culture Collection) and ECACC (European Collection of Authenticated Cell Cultures) and stored in liquid nitrogen. HT-29 (ATCC: HTB-38, colon adenoma cancer), HeLa (ATCC: CCL-2, cervix adenoma cancer cell), MDA-MB-231 (ATCC: HTB-26, breast adenoma cancer cell), and HEK-293 (ATCC: CRL-1573, embryonic kidney epithelial cell) cell lines were incubated in DMEM-F12 (Sigma-Aldrich, Germany), including 10% Fetal Bovine Serum (FBS), 100 μg/mL streptomycin/100 IU/mL penicillin, at 37 °C in an incubator containing 5% CO2, 95% air in a humid atmosphere. PNT-1A (ECACC: 95012614, normal prostate cells) cell line was incubated in RPMI-1640 medium, including %10 FBS, 100 μg/mL streptomycin/100 IU/mL penicillin, at 37 °C in an incubator containing 5% CO2, 95% air in a humid atmosphere.
(§2) The cytotoxic effects of compound E were evaluated with WST kit (Roche, Basel, Switzerland) in accordance with manufacturer protocols. The cells were planted in 96 well plates (10^4 cells per well). After 24 h of incubation, compound E at doses of 0, 2.5, 5, 10, 25, 50, 100, and 200 μM was administrated on the cell lines for 24, 48, and 72 h, and 5-FU on the control cell line with the same doses. WST-1 reactive of 10 µL was added in all wells. Following 4 h incubation, the measurements were carried out in a plate reader (Spectramax M5, BioTek, VT, USA) at wavelengths of 450 and 630 nm. Consequently, graphs were created, and the IC50 values of compound E and 5-fluorouracil were calculated. Selectivity index (SI) can be defined as the ratio of the toxic concentration of a sample against its effective compound concentration.
(In general: Tetrazolium assays rely on reduction of a dye to a coloured formazan, in cell work by metabolically active cells.)

The next assay has as its system PNT1-A. As to the kind of experiment: WST-1 cytotoxicity assay, PNT1-A. To be noted: Homo sapiens, PNT1A. On the procedure:
as §1, §2

A further assay relates to HeLa cells. Put plainly: WST-1 cytotoxicity assay, HeLa. The settings on record: Homo sapiens. On the procedure:
(§3) We used cancer and normal cell lines purchased from ATCC (American Type Culture Collection) and ECACC (European Collection of Authenticated Cell Cultures) and stored in liquid nitrogen.
(§4) The cells were planted in 96 well plates (10^4 cells per well). […] WST-1 reactive of 10 µL was added in all wells. Following 4 h incubation, the measurements were carried out in a plate reader (Spectramax M5, BioTek, VT, USA) at wavelengths of 450 and 630 nm.

In the next assay the test system is MDA-MB-231. As to the kind of experiment: WST-1 cytotoxicity assay, MDA-MB-231. To be noted: Homo sapiens. On the procedure: as §3, §4
The next assay deals with HT-29. As to the kind of experiment: WST-1 cytotoxicity assay, HT-29. To be noted: Homo sapiens. The protocol: as §3, §4

Structures are written as SMILES.

In the case of `O=c1[nH]cc(F)c(=O)[nH]1` [5-FU, 5-Fluorouracil, reference compound], the IC50 in the assay with HEK-293 (HEK293, HEK-293, 24 h) is 44.6 ± 7.2 µM; with HEK-293 (HEK293, HEK-293, 48 h), 19.8 ± 2.3 µM; with HEK-293 (HEK293, HEK-293, 72 h), 14.5 ± 3.2 µM; in the assay on PNT1-A (24 h) it was 23.1 ± 4.55 µM; with PNT1-A (48 h), 21.2 ± 2.2 µM; in the assay on PNT1-A (72 h), 17.5 ± 7.6 µM. Moreover, the half-inhibitory concentration (IC50) in the assay on HeLa cells (24 h) worked out at 37.8 ± 4.3 µM; in the assay with HeLa cells (48 h), 31.2 ± 2.3 µM; in the assay with HeLa cells (72 h) it was 14.7 ± 0.6 µM; with MDA-MB-231 (MDA-MB-231, 24 h), 42.6 ± 2.56 µM; with MDA-MB-231 (MDA-MB-231, 48 h) it was 37.9 ± 12.3 µM; with MDA-MB-231 (MDA-MB-231, 72 h) it was 21 ± 4.3 µM. Further, the IC50 in the assay on HT-29 (HT-29, 24 h) is 47.3 ± 1.2 µM; with HT-29 (HT-29, 48 h), 23.4 ± 2.1 µM; in the assay on HT-29 (HT-29, 72 h), 19.3 ± 1.2 µM.

What is called IC50 is the point on the concentration scale where inhibition reaches its midpoint. Low readings indicate inhibition by little substance, high ones a need for much substance.
